{
  "source": "paper PMC6853232",
  "about": "“Discovery and evaluation of novel synthetic 5-alkyl-4-oxo-4,5-dihydro-[1,2,4]triazolo[4,3-a]quinoxaline-1-carbox-amide derivatives as anti-inflammatory agents” (Journal of Enzyme Inhibition and Medicinal Chemistry, 2019)",
  "system": "gastric mucosa (stomach lesions)",
  "test": "Ulcerogenic effect",
  "assay_type": "in vivo",
  "conditions": "25 mg/kg p.o. once a day for three days, rats",
  "procedure": "The lead compound D1 and the newly synthesised compound 6p were subjected to in vivo testing to measure their ulcerogenic effect in comparison to celecoxib and ibuprofen. Male albino rats (220–250 g) divided into 5 groups (control, D1, 6p, ibuprofen and celecoxib group) of five rats each. The groups with D1, 6p, ibuprofen, and celecoxib were administered oral administration (p.o.) 25 mg/kg in a vehicle of 0.5% methylcellulose, respectively. The negative control group was treated with the same vehicle (0.5% methylcellulose). All groups were orally administered once a day for three consecutive days. Animals were sacrificed by diethyl ether 6 h after the last dose and the stomach was removed. An opening at the greater curvature was made and the stomach was cleaned by washing with cold saline and inspected with a three-time magnifying lens for any evidence of hyperaemia, haemorrhage, definite haemorrhagic erosion, or ulcer. An arbitrary scale was used to calculate the ulcer index which indicates the severity of the stomach lesions The % ulceration for each group was calculated as follows: % Ulceration = Number of animals bearing ulcer in a group/Total number of animals in the same group ×100.",
  "data": [
    {"smiles": "COc1cc(Cn2c(=O)c3nnc(C(N)=O)n3c3ccccc32)cc(OC)c1OC", "note": "[6p, 5-(3,4,5-trimethoxybenzyl)-4-oxo-4,5-dihydro-[1,2, 4]triazolo[4,3-a]quinoxaline-1-carboxamide]", "values": [
      {"measurement": "% ulceration", "value": 20, "unit": "%"}
    ]}
  ]
}
